Counter-ions that a name gives are not always drawn.
Tests used:
[1] = test system: G2M DNA damage checkpoint (pHH3) in HeLa cells; assay: Doxorubicin-Induced G2M Checkpoint Abrogation HeLa Cell-Based Acumen Assay; details: Homo sapiens, 125 nM doxorubicin 24 hours, compound seven hours, Relative EC50
Description: An inhibitor of CHK1 will disable the G2M DNA damage checkpoint in p53-minus tumor cells treated with the topoisomerase II inhibitor, doxorubicin. A measurement of G2M checkpoint abrogation is the phosphorylation of histone H3 on serine 10 that occurs after cells traverse the G2M checkpoint and enter mitosis. The following high content imaging assay can be used to measure the phosphorylation of histone H3 in cells. HeLa cells (purchased from ATCC) are cultured in MEM Media (Gibco™) supplemented with 10% (v/v) FBS and plated at 2000 cells per well in poly D-lysine coated clear bottom black plates (BD Biocoat Cat #3504640), 100 μL volume per well. Plates are then incubated in a cell culture incubator for 18-24 hours (37° C., 5% CO2 and 95% relative humidity). […] Plates are scanned with ACUMEN EXPLORER™ Laser-scanning fluorescence microplate cytometers using 488 nm excitation (TTP LABTECH LTC) to measure pHH3 and DNA content including 2 N, and 4 N. The pHH3 positive cells are identified by mean intensity at 519 nm from Alexa 488. […] The final readout for each population is determined by normalizing to the % of total cells producing a final assay output of % pHH3, %2 N and %4 N. 100% activity is then determined by treating cells with the maximum concentration of an inhibitor control compound at 100 nM to determine the final % activity of each compound. […]

[2] = test system: Alveoloar Rhabdomyosarcoma xenograft models; assay: Sarcoma xenograft models by tumor subtype: Alveolar Rhabdomyosarcoma; format: in vivo, mouse; details: age of patients 17-24 years
Description: (§1) The efficacy of 5-(5-(2-(3-aminopropoxy)-6-methoxyphenyl)-1H-pyrazol-3-ylamino)pyrazine-2-carbonitrile methanesulfonic acid monohydrate is measurable in vivo in mouse models of neuroblastomas and human pediatric and adult sarcomas. 5-(5-(2-(3-Aminopropoxy)-6-methoxyphenyl)-1H-pyrazol-3-ylamino)pyrazine-2-carbonitrile methanesulfonic acid monohydrate (10 mg/kg) can be administered subcutaneously to nude mice bearing either cell-derived xenografts (CDX) or patient-derived xenografts (PDX) of human rhabdomyosarcoma, desmoplastic small round cell tumor (DSRCT), osteosarcoma, and Ewing's sarcoma using a 3 day on, 4 day off b.i.d. dosing schedule. Tumor volume and body weight can be measured two times per week. Tumor-specific parameters can be evaluated by immumohistochemistry.
Expand human RMS cancer cells SJCRH-30 (St. Jude Children's Research Hospital) in culture, harvest, and inject 5×10^6 cells in 200 μL of HBSS subcutaneously into the right rear flank of female athymic nude mice (20-22 g, Harlan Laboratories). […]
(§2) For all “ST” models (encompassing RMS and LMS), patient-derived xenografts are established from viable human tumor tissue and are serially passaged in animals a limited number of times to maintain tumor heterogeneity. […] Tumor response is determined by tumor volume measurement performed twice per week during the course of treatment.

[3] = test system: Ewing's Sarcoma xenograft models; assay: Sarcoma xenograft models by tumor subtype: Ewing's Sarcoma; format: in vivo, mouse; details: age of patients 8-17 years
Description: as §1, with “immumohistochemistry. […]” for “immumohistochemistry.”
as §2

[4] = test system: Leiomyosarcoma xenograft models; assay: Sarcoma xenograft models by tumor subtype: Leiomyosarcoma; format: in vivo, mouse
From the text: For all “CTG” models (encompassing human RMS, DSRCT, EWS, OS and LMS patient-derived xenograft models), female NCr nude spontaneous mutant mice (5-8 weeks old, Taconic) are implanted unilaterally in the flank region with tumor fragments harvested from donor animals, each implanted from a specific passage lot.
For all “ST” models (encompassing RMS and LMS), patient-derived xenografts are established from viable human tumor tissue and are serially passaged in animals a limited number of times to maintain tumor heterogeneity. In subcutaneous models, athymic nude mice (Crl:NU(NCr)-Foxn1nu) or CB-17 SCID mice (CRL-CB17/Icr-Prkdcscid/IcrIcoCrl) are injected or implanted unilaterally into the flank with tumor fragments harvested from host animals, each implanted from a specific passage lot. For all studies, measure tumor growth and body weight twice per week beginning on the seventh day after implantation. When tumor size reaches 150-300 mm^3, randomize animals and group into groups of 4-7 animals. Prepare test compound in an appropriate vehicle (e.g. vehicle can be 20% Captisol® in sterile water) and administer subcutaneously for three consecutive days followed by a four day dosing holiday and repeat for a minimum of four weeks. Tumor response is determined by tumor volume measurement performed twice per week during the course of treatment.

[5] = Leiomyosarcoma, age of patients 48-64 years

Row | Compound | EC50 [1] [nM] | Result of Treatment: Complete Response (models) [2] | Result of Treatment: Stable Disease (models) [3] | Result of Treatment: Partial Response (models) [4, 5] | Result of Treatment: Stable Disease (models) [4, 5] | activity in PDX models ([4]; PDX models of leiomyosarcoma)
1 | COc1cccc(OCCCN)c1-c1cc(Nc2cnc(C#N)cn2)n[nH]1 [Example 2, 5-(5-(2-(3-Aminopropoxy)-6-methoxyphenyl)-1H-pyrazol-3-ylamino)pyrazine-2-carbonitrile dihydrogen chloride salt] | 10.5 |  |  |  |  | 
2 | COc1cccc(OCCCN)c1-c1cc(Nc2cnc(C#N)cn2)n[nH]1 [Example 5, 5-(5-(2-(3-Aminopropoxy)-6-methoxyphenyl)-1H-pyrazol-3-ylamino)pyrazine-2-carbonitrile methanesulfonic acid monohydrate] |  | 2/2 Complete | 1/4 Stable Disease | 1/5 Partial | Response; 1/5 | active

Source: patent publication US12558345B2, “CHK1/2 inhibitors for use in the treatment of neuroblastomas and/or soft tissue sarcomas” (Eli Lilly and Company, priority 2015, dated 2026)
